The values below come from patent publication US20250064941A1, “SIGLEC LIGANDS, CONJUGATES, AND METHODS OF USE THEREOF” (Osprey Biopharmaceuticals, Inc., priority 2023, published 2025).

SMILES strings stand for the structures. Some results are limits rather than exact numbers.

In one test the target is cynomolgus Siglec-2/CD22 (Macaca fascicularis, UniProt A0A2K5WCZ6). As to the kind of experiment: biochemical. The note with it: SPR, steady-state analysis; read-out: Affinity cyno CD22. In kind it is binding. In outline: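 SPR with desialylated (SialoExo, 4 h, 37° C.) cynomolgus CD22 amine-coupled to a CM5 chip. Running buffer 10 mM HEPES, 150 mM NaCl, 0.05% Tween-20, pH 7.5, 1% DMSO, with solvent correction; 120 s dissociation. Affinities from steady-state analysis.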
Chain of cynomolgus Siglec-2/CD22 (A0A2K5WCZ6 entry or part of it): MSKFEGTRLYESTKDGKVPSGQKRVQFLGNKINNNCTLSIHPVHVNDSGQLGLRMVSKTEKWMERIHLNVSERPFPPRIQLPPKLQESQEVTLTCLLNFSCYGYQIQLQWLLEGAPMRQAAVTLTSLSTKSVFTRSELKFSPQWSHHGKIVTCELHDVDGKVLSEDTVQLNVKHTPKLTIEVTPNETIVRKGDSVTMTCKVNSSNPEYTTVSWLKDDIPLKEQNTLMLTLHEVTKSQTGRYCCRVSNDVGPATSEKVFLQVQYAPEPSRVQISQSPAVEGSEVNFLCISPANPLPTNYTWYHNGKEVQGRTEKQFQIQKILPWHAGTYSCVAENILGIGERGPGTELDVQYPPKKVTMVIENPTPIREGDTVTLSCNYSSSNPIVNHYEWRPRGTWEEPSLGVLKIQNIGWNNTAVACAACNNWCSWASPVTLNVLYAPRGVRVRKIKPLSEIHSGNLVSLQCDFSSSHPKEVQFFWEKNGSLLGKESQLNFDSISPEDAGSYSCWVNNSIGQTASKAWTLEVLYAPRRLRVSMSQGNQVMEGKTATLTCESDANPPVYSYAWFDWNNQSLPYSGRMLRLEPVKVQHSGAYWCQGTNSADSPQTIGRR

Test [1] concerns the target T1, human Siglec-2/CD22 protein (Homo sapiens, UniProt P20273).
T1 construct: purchased Acro Biosystems SI2-H82E3
T1 sequence (P20273 20-847): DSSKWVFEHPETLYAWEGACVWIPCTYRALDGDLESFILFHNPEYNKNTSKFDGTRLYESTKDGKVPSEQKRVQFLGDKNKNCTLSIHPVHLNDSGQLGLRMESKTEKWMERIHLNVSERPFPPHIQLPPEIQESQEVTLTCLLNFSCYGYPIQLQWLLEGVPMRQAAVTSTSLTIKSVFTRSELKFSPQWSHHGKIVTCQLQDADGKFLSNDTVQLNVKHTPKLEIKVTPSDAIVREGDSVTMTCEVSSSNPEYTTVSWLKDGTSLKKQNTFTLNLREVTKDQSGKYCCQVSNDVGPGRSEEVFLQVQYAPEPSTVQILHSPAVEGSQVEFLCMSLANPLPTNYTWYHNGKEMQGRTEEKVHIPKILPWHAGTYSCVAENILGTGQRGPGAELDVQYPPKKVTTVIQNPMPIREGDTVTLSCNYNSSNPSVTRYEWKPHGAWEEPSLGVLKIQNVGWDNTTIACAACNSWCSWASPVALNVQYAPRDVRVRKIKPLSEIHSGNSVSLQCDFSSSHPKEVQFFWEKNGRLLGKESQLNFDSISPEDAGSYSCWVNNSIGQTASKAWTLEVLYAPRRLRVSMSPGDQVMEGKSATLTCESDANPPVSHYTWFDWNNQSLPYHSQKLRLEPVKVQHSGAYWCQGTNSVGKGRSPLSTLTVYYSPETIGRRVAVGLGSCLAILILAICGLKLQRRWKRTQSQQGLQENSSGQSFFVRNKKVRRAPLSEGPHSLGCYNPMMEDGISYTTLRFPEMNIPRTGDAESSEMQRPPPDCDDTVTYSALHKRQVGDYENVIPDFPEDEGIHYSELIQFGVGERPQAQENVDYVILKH
As to the kind of experiment: SPR binding affinity to human CD22. The note with it: steady-state analysis. In outline: (§1)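 Native sialic acid residues are removed from the receptor enzymatically (4 hours at 37° C.) prior to streptavidin capture of the biotinylated protein. Ligand compounds then flow over in HEPES-buffered saline, pH 7.5, containing 0.05% Tween-20 and 1% DMSO, and binding is evaluated at steady state.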

Test [2] concerns the target T2, mouse Siglec-2-Fc-Avi (CD22) (Mus musculus, UniProt P35329).
T2 construct: made in house
T2 sequence (P35329 22-708 limits assumed): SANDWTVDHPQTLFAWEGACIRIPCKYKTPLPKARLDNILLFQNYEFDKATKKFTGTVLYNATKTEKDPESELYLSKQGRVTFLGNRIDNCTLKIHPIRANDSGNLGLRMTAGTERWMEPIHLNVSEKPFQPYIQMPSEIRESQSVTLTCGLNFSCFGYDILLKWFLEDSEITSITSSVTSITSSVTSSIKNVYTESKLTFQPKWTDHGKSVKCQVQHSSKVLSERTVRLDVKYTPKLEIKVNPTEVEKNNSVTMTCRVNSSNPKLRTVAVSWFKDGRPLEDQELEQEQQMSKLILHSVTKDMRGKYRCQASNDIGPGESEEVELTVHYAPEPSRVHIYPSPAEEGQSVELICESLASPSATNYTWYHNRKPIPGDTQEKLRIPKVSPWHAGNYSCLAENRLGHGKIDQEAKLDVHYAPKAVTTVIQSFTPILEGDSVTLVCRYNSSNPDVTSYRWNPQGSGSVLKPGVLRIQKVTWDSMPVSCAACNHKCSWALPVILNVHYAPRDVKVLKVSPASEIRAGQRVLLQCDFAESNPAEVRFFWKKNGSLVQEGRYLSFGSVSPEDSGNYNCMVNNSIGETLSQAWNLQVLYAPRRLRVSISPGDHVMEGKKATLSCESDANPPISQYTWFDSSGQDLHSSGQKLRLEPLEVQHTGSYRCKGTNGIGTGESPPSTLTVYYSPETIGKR
Put plainly: SPR binding affinity to mouse CD22. The note with it: steady-state analysis. The essentials:
as §1

With `CC(=O)NCCOCCOCCOCCOCCNc1c(NCCOCCOCCO[C@]2(C(=O)O)C[C@H](O)[C@@H](NC(=O)CO)[C@H]([C@H](O)[C@H](O)CNC(=O)Cc3ccc(-c4ccccc4)cc3)O2)c(=O)c1=O` [Cpd. 242, (2R,4S,5R,6R)-6-((1R,2R)-3-(2-([1,1′-biphenyl]-4-yl)acetamido)-1,2-dihydroxypropyl)-2-(2-(2-(2-((3,4-dioxo-2-((2-oxo-6,9,12,15-tetraoxa-3-azaheptadecan-17-yl)amino)cyclobut-1-en-1-yl)amino)ethoxy)ethoxy)ethoxy)-4-hydroxy-5-(2-hydroxyacetamido)tetrahydro-2H-pyran-2-carboxylic acid], the Kd (on cynomolgus Siglec-2/CD22; in test [1]; in test [2]) was 1000 to 10000 nM in each case.

As to `CC(=O)NCCOCCOCCOCCOCc1cn(CCOCCOCCO[C@]2(C(=O)O)C[C@H](O)[C@@H](NC(=O)CO)[C@H]([C@H](O)[C@H](O)CNC(=O)Cc3ccc(-c4ccccc4)cc3)O2)nn1` [Cpd. 243, (2R,4S,5R,6R)-6-((1R,2R)-3-(2-([1,1′-biphenyl]-4-yl)acetamido)-1,2-dihydroxypropyl)-4-hydroxy-5-(2-hydroxyacetamido)-2-(2-(2-(2-(4-(15-oxo-2,5,8,11-tetraoxa-14-azahexadecyl)-1H-1,2,3-triazol-1-yl)ethoxy)ethoxy)ethoxy) tetrahydro-2H-pyran-2-carboxylic acid], the Kd (on cynomolgus Siglec-2/CD22; in test [1]; in test [2]) was 1000 to 10000 nM in each case.

Regarding `CC(=O)NCCOCCOCCOCCOCCC(=O)NCCCCCCO[C@]1(C(=O)O)C[C@H](O)[C@@H](NC(=O)CO)[C@H]([C@H](O)[C@H](O)CNC(=O)Cc2ccc(Cl)cc2)O1` [Cpd. 244, (2R,4S,5R,6R)-6-((1R,2R)-3-(2-(4-chlorophenyl)acetamido)-1,2-dihydroxypropyl)-2-((2,18-dioxo-6,9,12,15-tetraoxa-3,19-diazapentacosan-25-yl)oxy)-4-hydroxy-5-(2-hydroxyacetamido) tetrahydro-2H-pyran-2-carboxylic acid], the Kd (at cynomolgus Siglec-2/CD22; in test [1]; in test [2]) was less than 1000 nM each time.

`CC(=O)NCCOCCOCCOCCOCc1cn(CCCCCCO[C@]2(C(=O)O)C[C@H](O)[C@@H](NC(=O)CO)[C@H]([C@H](O)[C@H](O)CNC(=O)Cc3ccc(Cl)cc3)O2)nn1` [Cpd. 246, (2R,4S,5R,6R)-6-((1R,2R)-3-(2-(4-chlorophenyl)acetamido)-1,2-dihydroxypropyl)-4-hydroxy-5-(2-hydroxyacetamido)-2-((6-(4-(15-oxo-2,5,8,11-tetraoxa-14-azahexadecyl)-1H-1,2,3-triazol-1-yl)hexyl)oxy) tetrahydro-2H-pyran-2-carboxylic acid]: the Kd (at cynomolgus Siglec-2/CD22; in test [1]; in test [2]) was less than 1000 nM throughout.

With `CC(=O)NCCOCCOCCOCCOCCNc1c(NCCOCCOCCO[C@]2(C(=O)O)C[C@H](O)[C@@H](NC(=O)CO)[C@H]([C@H](O)[C@H](O)CNC(=O)Cc3ccc(Cl)cc3)O2)c(=O)c1=O` [Cpd. 247, (2R,4S,5R,6R)-6-((1R,2R)-3-(2-(4-chlorophenyl)acetamido)-1,2-dihydroxypropyl)-2-(2-(2-(2-((3,4-dioxo-2-((2-oxo-6,9,12,15-tetraoxa-3-azaheptadecan-17-yl)amino)cyclobut-1-en-1-yl)amino)ethoxy)ethoxy)ethoxy)-4-hydroxy-5-(2-hydroxyacetamido) tetrahydro-2H-pyran-2-carboxylic acid], the Kd (at cynomolgus Siglec-2/CD22; in test [1]; in test [2]) was 1000 to 10000 nM throughout.

Take `CC(=O)NCCOCCOCCOCCOCCC(=O)NCCCCCCO[C@]1(C(=O)O)C[C@H](O)[C@@H](NC(=O)CO)[C@H]([C@H](O)[C@H](O)CNC(=O)Cc2ccc(C(F)F)cc2)O1` [Cpd. 256, (2R,4S,5R,6R)-6-((1R,2R)-3-(2-(4-(difluoromethyl)phenyl)acetamido)-1,2-dihydroxypropyl)-2-((2,18-dioxo-6,9,12,15-tetraoxa-3,19-diazapentacosan-25-yl)oxy)-4-hydroxy-5-(2-hydroxyacetamido) tetrahydro-2H-pyran-2-carboxylic acid]: the Kd on cynomolgus Siglec-2/CD22 was less than 1000 nM; in test [1], less than 1000 nM; in test [2] it was 1000 to 10000 nM.

For the compound `CC(=O)NCCOCCOCCOCCOCCNC(=O)CCCCCCO[C@]1(C(=O)O)C[C@H](O)[C@@H](NC(=O)CO)[C@H]([C@H](O)[C@H](O)CNC(=O)Cc2ccc(C(F)F)cc2)O1` [Cpd. 257, (2R,4S,5R,6R)-6-((1R,2R)-3-(2-(4-(difluoromethyl)phenyl)acetamido)-1,2-dihydroxypropyl)-2-((2,19-dioxo-6,9,12,15-tetraoxa-3,18-diazapentacosan-25-yl)oxy)-4-hydroxy-5-(2-hydroxyacetamido)tetrahydro-2H-pyran-2-carboxylic acid], the Kd at cynomolgus Siglec-2/CD22 was less than 1000 nM; in test [1] it was less than 1000 nM; in test [2], 1000 to 10000 nM.

With `CC(=O)NCCOCCOCCOCCOCCNc1c(NCCCCCCO[C@]2(C(=O)O)C[C@H](O)[C@@H](NC(=O)CO)[C@H]([C@H](O)[C@H](O)CNC(=O)Cc3ccc(C(F)F)cc3)O2)c(=O)c1=O` [Cpd. 258, (2R,4S,5R,6R)-6-((1R,2R)-3-(2-(4-(difluoromethyl)phenyl)acetamido)-1,2-dihydroxypropyl)-2-((6-((3,4-dioxo-2-((2-oxo-6,9,12,15-tetraoxa-3-azaheptadecan-17-yl)amino)cyclobut-1-en-1-yl)amino)hexyl)oxy)-4-hydroxy-5-(2-hydroxyacetamido)tetrahydro-2H-pyran-2-carboxylic acid], the Kd (on cynomolgus Siglec-2/CD22; in test [1]; in test [2]) was less than 1000 nM in each case.

As for `CC(=O)NCCOCCOCCOCCOCc1cn(CCOCCOCCO[C@]2(C(=O)O)C[C@H](O)[C@@H](NC(=O)CO)[C@H]([C@H](O)[C@H](O)CNC(=O)Cc3ccc(Cl)cc3)O2)nn1` [Cpd. 260, (2R,4S,5R,6R)-6-((1R,2R)-3-(2-(4-chlorophenyl)acetamido)-1,2-dihydroxypropyl)-4-hydroxy-5-(2-hydroxyacetamido)-2-(2-(2-(2-(4-(15-oxo-2,5,8,11-tetraoxa-14-azahexadecyl)-1H-1,2,3-triazol-1-yl)ethoxy)ethoxy)ethoxy)tetrahydro-2H-pyran-2-carboxylic acid], the Kd (at cynomolgus Siglec-2/CD22; in test [1]; in test [2]) was 1000 to 10000 nM in each case.

For `CC(=O)NCCOCCOCCOCCOCCNc1c(NCCCCCCO[C@]2(C(=O)O)C[C@H](O)[C@@H](NC(=O)CO)[C@H]([C@H](O)[C@H](O)CNC(=O)Cc3ccc(-c4nnn[nH]4)cc3)O2)c(=O)c1=O` [Cpd. 265, (2R,4S,5R,6R)-6-((1R,2R)-3-(2-(4-(1H-tetrazol-5-yl)phenyl)acetamido)-1,2-dihydroxypropyl)-2-((6-((3,4-dioxo-2-((2-oxo-6,9,12,15-tetraoxa-3-azaheptadecan-17-yl)amino)cyclobut-1-en-1-yl)amino)hexyl)oxy)-4-hydroxy-5-(2-hydroxyacetamido)tetrahydro-2H-pyran-2-carboxylic acid], the Kd (on cynomolgus Siglec-2/CD22; in test [1]; in test [2]) was less than 1000 nM each time.
